Earlier results on two substances are cited in patent publication US4644054A, “Calcitonin analogs with amino acid substituents at position 31” (priority 1985, dated 1987).

Bridge positions count the residues as written; N and C are the ends. Ends that are not written are not given here.

For this data set the following is noted: compared with natural human calcitonin.

On to Salmon 1 calcitonin, for which the “activity relative to natural human calcitonin” value is “thirty to forty times more active”.

For the substance “human calcitonin analog with Serine^29 and Threonine^31substituents: human calcitonin analog with Serine at position 29 and Threonine at position 31 (Maier et al. 1974) (CGNLSTCMLGTYTQDFNKFHTFPQTAIGSGTP; disulfide 1-7; ends not checked; UniProt P01258 85-116, looked up, variant V29S A31T)”, the “activity relative to natural human calcitonin” value is recorded as “five times more active”.
